Where two headings read alike, the source gives them in different places.
Test system: adult mongrel dogs
Test: Renal vasodilating activity in anesthetized dogs
Type: in vivo, dog (adult mongrel)
Conditions: Canis lupus familiaris; for change in vivo at 0.2 mg/kg: 0.2 mg/kg intravenous
Protocol: Goldberg et al, J. Pharmacol. Exp. Ther., 163, 188 (1968), performed an investigation of the structural requirements for dopamine-like renal vasodilation of phenethylamines and apmorphine. The following procedure is a variation of the assay described in that report.
Adult mongrel dogs were anesthetized and surgically prepared for electromagnetic measurement of renal artery blood flow. A carotid artery was cannulated for measuring arterial blood pressure, and drugs were administered intravenously or intraarterially (via the renal artery). Heart rate was monitored with a cardiotachometer. Renal vascular resistance was calculated as the ratio of mean arterial blood pressure/renal artery blood flow. Dopamine was infused intravenously at […] for ten minutes (at an infusion rate of about 1 ml/min) to determine responsiveness of each dog to renal dopamine receptor stimulation. Cumulative dose-response data were obtained by infusing a compound of this invention at progressively increasing (usually three-fold) infusion rates, esch dose being infused for five minutes. The maximum percent increase from pre-drug control in renal artery blood flow (or a decrease in renal vascular resistance) was determined for each infusion dose.
RBF values are percent increase in renal blood flow. RVR values are percent increase in renal vascular resistance. MABP and HR are increases in mean arterial blood pressure and heart rate, respectively, relative to controls.

[1] = 1.2 mg/kg intravenous, relative to controls, read-out: HR, percent change in heart rate
[2] = 1.2 mg/kg intravenous, relative to controls, read-out: MABP, mean arterial blood pressure
[3] = 1.2 mg/kg intravenous, relative to controls, read-out: RBF, renal blood flow
[4] = 1.2 mg/kg intravenous, relative to controls, read-out: RVR, renal vascular resistance
[5] = 6.2 mg/kg intravenous, relative to controls, read-out: HR, percent change in heart rate
[6] = 6.2 mg/kg intravenous, relative to controls, read-out: MABP, mean arterial blood pressure
[7] = 6.2 mg/kg intravenous, relative to controls, read-out: RBF, renal blood flow
[8] = 6.2 mg/kg intravenous, relative to controls, read-out: RVR, renal vascular resistance
[9] = iv, read-out: HR, percent change in heart rate

Row | SMILES | change in vivo at 1.2 mg/kg [1] [%] | change in vivo at 1.2 mg/kg [2] [%] | change in vivo at 1.2 mg/kg [3] [%] | change in vivo at 1.2 mg/kg [4] [%] | change in vivo at 6.2 mg/kg [5] [%] | change in vivo at 6.2 mg/kg [6] [%] | change in vivo at 6.2 mg/kg [7] [%] | change in vivo at 6.2 mg/kg [8] [%] | other results
1 | COc1cc2c(C)nc(O)c(NC(=O)Nc3ccc(N)cc3)c2cc1OC [BBZ] | 8 | 5 | 22 | -12 |  |  |  |  | 
2 | COc1ccc(NC(=O)Nc2c(O)nc(C)c3cc(OC)ccc23)cc1 [BBS] | 5 | 2 | 17 | -4 |  |  |  |  | 
3 | COc1ccc(NC(=O)Nc2c(O)nc(C)c3cc(OC)c(OC)cc23)cc1 [BP, 4-(N'-para-methoxyphenylureido)-3-hydroxy-6,7-dimethoxy-1-methylisoquinoline] |  |  |  |  | 2 | 12 | 68 | -32 | 
4 | COC(=O)Nc1c(O)nc(C)c2cc(OC)c(OC)cc12 [BBR] |  |  |  |  | 27 | -7 | 30 | -29 | 
5 | COc1cc2c(C)nc(O)c(NC(=O)NC3CCCCC3)c2cc1OC [BBE] | 2 | 3 | 24 | -16 |  |  |  |  | 
6 | COc1ccc(NC(=O)Nc2c(O)nc(C)c3cc(OC)c(OC)cc23)c(OC)c1 [BAP] | -1 | -14 | 17 | -26 |  |  |  |  | 
7 | CCCCCCCCNC(=O)Nc1c(O)nc(C)c2cc(OC)c(OC)cc12 [BBF] | -14 |  | 19 | -24 |  |  |  |  | 
8 | COc1cc2c(C)nc(O)c(NC(=O)Nc3ccc(C(=O)O)cc3)c2cc1OC [Compound BCA, 4-[N-(4-Carboxyphenyl)ureido]-3-hydroxy-6,7-dimethoxy-1-methylisoquinoline.5/2 Hydrate] | -12 | -1 | 40 | -28 |  |  |  |  | 
9 | COc1ccc(NC(=O)Nc2c(O)ncc3cc(OC)c(OC)cc23)cc1 [BBG] |  | 1 | 15 | -11 |  |  |  |  | change in vivo at 1.2 mg/kg [9]: 12%
10 | COc1cc2c(C)nc(O)c(NC(=O)Nc3cccc(C(F)(F)F)c3)c2cc1OC [BAG] |  |  |  |  | -10 | 2 | 23 | -16 | 
11 | COc1ccc(NC(=O)Nc2c(O)nc(C)c3cc(OC)c(OC)cc23)cc1OC [BBL] | -1 | 5 | 13 | -8 |  |  |  |  | 
12 | COc1cc2c(C)nc(O)c(NC(=O)Nc3ccc(C#N)cc3)c2cc1OC [BBX] | -11 | -11 | 12 | -20 |  |  |  |  | 
13 | COc1cc2c(C)nc(O)c(NC(N)=O)c2cc1OC [Compound BM, 6,7-Dimethoxy-3-hydroxy-1-methyl-4-ureidoisoquinoline] |  |  |  |  | -10 | 18 | 59 | -23 | 
14 | COc1cc2c(C)nc(O)c(NC(=O)Nc3ccc([S+](C)[O-])cc3)c2cc1OC (stereo not drawn) [Compound BCB, Hydrate] | -1 | 5 | 12 | -6 |  |  |  |  | 
15 | COc1cc2c(C)nc(O)c(NC(=O)NCCCl)c2cc1OC [BAY] |  |  |  |  |  |  |  |  | change in vivo at 6.2 mg/kg [9]: 27%; change in vivo at 6.2 mg/kg (iv, read-out: MABP, mean arterial blood pressure): 19%; change in vivo at 6.2 mg/kg (iv, read-out: RBF, renal blood flow): 85%; change in vivo at 6.2 mg/kg (iv, read-out: RVR, renal vascular resistance): -35%
16 | CCCCOC(=O)Nc1c(O)nc(C)c2cc(OC)c(OC)cc12 [Compound BBP, 4-[N-(n-Butoxycarbonyl)amino]-3-hydroxy-6,7-dimethoxy-1-methylisoquinoline] |  |  |  |  |  | 1 | 77 | -42 | 

Row | SMILES | change in vivo at 1.2 mg/kg [1] [%] | change in vivo at 1.2 mg/kg [2] [%] | change in vivo at 1.2 mg/kg [3] [%] | change in vivo at 1.2 mg/kg [4] [%] | change in vivo at 6.2 mg/kg [5] [%] | change in vivo at 6.2 mg/kg [6] [%] | change in vivo at 6.2 mg/kg [7] [%] | change in vivo at 6.2 mg/kg [8] [%] | other results
17 | C=CCNC(=O)Nc1c(O)nc(C)c2cc(OC)c(OC)cc12 [BAO, 4-(N'-allylureido)-3-hydroxy-6,7-dimethoxy-1-methylisoquinoline] | -3 | 8 | 96 | -44 |  |  |  |  | 
18 | COc1cccc(NC(=O)Nc2c(O)nc(C)c3cc(OC)c(OC)cc23)c1 [BAE] |  |  |  |  | -2 |  | 58 | -36 | 
19 | COc1cc2c(C)nc(O)c(NC(=O)Nc3ccc([N+](=O)[O-])cc3)c2cc1OC [BAR] |  |  | 9 | -8 |  |  |  |  | 
20 | CCOc1cc2c(C)nc(O)c(NC(N)=O)c2cc1OC [BS] |  |  |  |  | 4 |  | 33 | -24 | 
21 | COc1cc2c(C)nc(O)c(NC(=O)NC(C)(C)C)c2cc1OC [BAU] |  |  |  |  | 4 | -3 | 12 | -13 | 
22 | CCOc1cc2c(C)nc(O)c(NC(=O)Nc3ccc(C(F)(F)F)cc3)c2cc1OC [BV] |  |  |  |  | 26 | -6 | 25 | -24 | 
23 | CCOc1cc2c(NC(=O)Nc3ccc(SC)cc3)c(O)nc(C)c2cc1OC [BBA] |  |  |  |  | 2 | 23 | 53 | -17 | 
24 | COc1cc2c(C)nc(O)c(NC(=O)NCCc3ccccc3)c2cc1OC [BBM] |  |  |  |  |  |  |  |  | change in vivo at 0.2 mg/kg (relative to controls, read-out: HR, percent change in heart rate): -1%; change in vivo at 0.2 mg/kg (relative to controls, read-out: RBF, renal blood flow): 12%; change in vivo at 0.2 mg/kg (relative to controls, read-out: RVR, renal vascular resistance): -10%
25 | CCOc1cc2c(NC(=O)Nc3ccc(OC)cc3)c(O)nc(C)c2cc1OC [BAV] |  |  |  |  | 9 | -5 | 35 | -29 | 
26 | CNC(=O)Nc1c(O)nc(C)c2cc(OC)c(OC)cc12 [BBY] | -4 | 6 | 21 | -12 |  |  |  |  | 
27 | CCNC(=O)Nc1c(O)nc(C)c2cc(OC)c(OC)cc12 [BCD] |  |  | 28 | -22 |  |  |  |  | 
28 | COc1cc2c(C)nc(O)c(NC(=O)Nc3cccc(Cl)c3)c2cc1OC [BAF] |  |  |  |  | 4 |  | 30 | -20 | 
29 | CCOc1cc2c(C)nc(O)c(NC(=O)NCc3ccccc3)c2cc1OC [BAJ] |  |  |  |  | -6 | -11 | 54 | -32 | 
30 | CCCCNC(=O)Nc1c(O)nc(C)c2cc(OC)c(OC)cc12 [Compound BR, 4-(N'-n-Butylureido)-3-hydroxy-6,7-dimethoxy-1-methylisoquinoline Hemihydrate] |  |  |  |  | -9 | -1 | 128 | -56 | 
31 | COc1cc2c(C)nc(O)c(NC(=O)Nc3ccc(C(F)(F)F)cc3)c2cc1OC [BAD] |  |  |  |  |  | 4 | 49 | -29 | change in vivo at 6.2 mg/kg [9]: 10%
